In US20060116390A1, “Hepatitis c virus inhibitors” (priority 2003, published 2006):
Where two headings read alike, the source gives them in different places.

Tested on: HCV proteins in Rep5.1 cells (replicon cell line)
Assay: Inhibitory activity of HCV: cell-based ELISA in replicon cell line Rep5.1 (decrease of HCV proteins)
Set-up: species or system hepatitis C virus
Details: Hepatitis C virus, 72 h, Rep5.1 cells, 72 hours with drug
Outline: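 HCV protein loss was quantified by ELISA on methanol/acetone-fixed cells 72 h after drug addition, probing with selected HCV-positive human plasma, and IC50 was defined as 50% reduction relative to untreated wells. The cells were Rep5.1 replicon cells cultured in DMEM-10 with 500 μg/ml G418, plated at 5000 per well and dosed with serial dilutions after 4 h attachment.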

[1] = concentration at which 50% of HCV proteins was decreased, Table 2, read-out: IC50
[2] = decrease of HCV proteins measured by HCV antibody, Table 1, read-out: Level (IC50 values classified)

CC1=C(C(=O)OCc2cnc(-c3cccs3)s2)CNC(=S)N1 [Compound 210, 6-methyl-2-thioxo-1,2,3,4-tetrahydro-pyrimidine-5-carboxylic acid 2-thiophen-2-yl-thiazol-5-ylmethyl ester]
IC50 [1]: 3000 nM
IC50 [2]: 1000 to 10000 nM

O=C(OCc1ccccc1)C1=C(CCc2ccccc2)NC(=S)NC1 [Compound 19, 6-phenethyl-2-thioxo-1,2,3,4-tetrahydro-pyrimidine-5-carboxylic acid benzyl ester]
IC50 [1]: 1600 nM
IC50 [2]: < 1000 nM

CC1=C(C(=O)OC(C)CCc2cccs2)C(CF)NC(=S)N1 (stereo not shown) [74′, 4-fluoromethyl-6-methyl-2-thioxo-1,2,3,4-tetrahydro-pyrimidine-5-carboxylic acid 1-methyl-3-thiophen-2-yl-propyl ester]
IC50 [1]: 7000 nM
IC50 [2]: 1000 to 10000 nM

CC1=C(C(=O)OCc2ccc(C)c([N+](=O)[O-])c2)CNC(=S)N1 [Compound 136, 6-methyl-2-thioxo-1,2,3,4-tetrahydro-pyrimidine-5-carboxylic acid 3-nitro-4-methyl-benzyl ester]
IC50 [1]: 600 nM
IC50 [2]: < 1000 nM

CC1=C(C(=O)OCCC2CCc3ccccc32)CNC(=S)N1 (stereo not shown) [Compound 126, 6-methyl-2-thioxo-1,2,3,4-tetrahydro-pyrimidine-5-carboxylic acid 2-indan-1-yl-ethyl ester]
IC50 [1]: < 400 nM
IC50 [2]: < 1000 nM

CC1=C(C(=O)OCC2CCCCC2)CNC(=S)N1 [Compound 29, 6-methyl-2-thioxo-1,2,3,4-tetrahydro-pyrimidine-5-carboxylic acid cyclohexylmethyl ester]
IC50 [1]: 300 nM
IC50 [2]: < 1000 nM

CC1=C(C(=O)OCCOCCc2ccsc2)CNC(=S)N1 [54′, 6-methyl-2-thioxo-1,2,3,4-tetrahydro-pyrimidine-5-carboxylic acid 2-(2-thiophen-3-yl-ethoxy)-ethyl ester]
IC50 [1]: 5000 nM
IC50 [2]: 1000 to 10000 nM

CC1=C(C(=O)OCCc2cccc(C)c2)CNC(=S)N1 [Compound 172, 6-methyl-2-thioxo-1,2,3,4-tetrahydro-pyrimidine-5-carboxylic acid 2-m-tolyl-ethyl ester]
IC50 [1]: < 400 nM
IC50 [2]: < 1000 nM

CC1=C(C(=O)OCc2c(C)nn(-c3ccccc3)c2C)CNC(=S)N1 [Compound 181, 6-methyl-2-thioxo-1,2,3,4-tetrahydro-pyrimidine-5-carboxylic acid 3,5-dimethyl-1-phenyl-1H-pyrazol-4-ylmethyl ester]
IC50 [1]: > 100000 nM
IC50 [2]: > 20000 nM

CC1=C(C(=O)OCc2ccc(C)c(C)c2)CNC(=S)N1 [Compound 76, 6-methyl-2-thioxo-1,2,3,4-tetrahydro-pyrimidine-5-carboxylic acid 3,4-dimethyl-benzyl ester]
IC50 [1]: 600 nM
IC50 [2]: < 1000 nM

CC1=C(C(=O)OCc2nc3ccccc3s2)CNC(=S)N1 [Compound 226, 6-methyl-2-thioxo-1,2,3,4-tetrahydro-pyrimidine-5-carboxylic acid benzothiazol-2-ylmethyl ester]
IC50 [1]: 2200 nM
IC50 [2]: 1000 to 10000 nM

CCCOc1ccc(COC(=O)C2=C(C)NC(=S)NC2)cc1 [Compound 78, 6-methyl-2-thioxo-1,2,3,4-tetrahydro-pyrimidine-5-carboxylic acid 4-propoxy-benzyl ester]
IC50 [1]: 1000 nM
IC50 [2]: < 1000 nM

CC1=C(C(=O)OCCSc2nc3ccccc3o2)C(CF)NC(=S)N1 (stereo not shown) [46′, 4-fluoromethyl-6-methyl-2-thioxo-1,2,3,4-tetrahydro-pyrimidine-5-carboxylic acid 2-(benzoxazol-2-ylsulfanyl)-ethyl ester]
IC50 [1]: 6000 nM
IC50 [2]: 1000 to 10000 nM

CCc1ccc(COC(=O)C2=C(C)NC(=S)NC2)cc1 [Compound 152, 6-methyl-2-thioxo-1,2,3,4-tetrahydro-pyrimidine-5-carboxylic acid 4-ethyl-benzyl ester]
IC50 [1]: 500 nM
IC50 [2]: < 1000 nM

CC1=C(C(=O)OCc2cccc(C(F)(F)F)c2)C(CO)NC(=S)N1 (stereo not shown) [51″, 4-hydroxymethyl-6-methyl-2-thioxo-1,2,3,4-tetrahydro-pyrimidine-5-carboxylic acid 3-trifluoromethyl-benzyl ester]
IC50 [1]: 2300 nM
IC50 [2]: 1000 to 10000 nM

CC1=C(C(=O)OCc2ccc(OCC(C)C)cc2)CNC(=S)N1 [Compound 72, 6-methyl-2-thioxo-1,2,3,4-tetrahydro-pyrimidine-5-carboxylic acid 4-isobutoxy-benzyl ester]
IC50 [1]: < 500 nM
IC50 [2]: < 1000 nM

CC1=C(C(=O)OCC=Cc2ccsc2)C(CF)NC(=S)N1 (stereo not shown) [Compound 269, 4-fluoromethyl-6-methyl-2-thioxo-1,2,3,4-tetrahydro-pyrimidine-5-carboxylic acid 3-thiophen-3-yl-allyl ester]
IC50 [1]: 5000 nM
IC50 [2]: 1000 to 10000 nM

CC1=C(C(=O)OCc2ccccc2C)CNC(=S)N1 [Compound 231, 6-methyl-2-thioxo-1,2,3,4-tetrahydro-pyrimidine-5-carboxylic acid 2-methyl-benzyl ester]
IC50 [1]: 700 nM
IC50 [2]: < 1000 nM

COc1ccc(COC(=O)C2=C(C)NC(=S)NC2)cc1 [Compound 8, 6-methyl-2-thioxo-1,2,3,4-tetrahydro-pyrimidine-5-carboxylic acid 4-methoxy-benzyl ester]
IC50 [1]: 3000 nM
IC50 [2]: 1000 to 10000 nM

O=C(OCCCc1cccs1)C1=CNC(=S)NC1CF (stereo not shown) [16′, 4-fluoromethyl-2-thioxo-1,2,3,4-tetrahydro-pyrimidine-5-carboxylic acid 3-thiophen-2-yl-propyl ester]
IC50 [1]: 2000 nM
IC50 [2]: 1000 to 10000 nM

COc1ccc(COc2ccc(COC(=O)C3=C(C)NC(=S)NC3)cc2)cc1 [Compound 227, 6-methyl-2-thioxo-1,2,3,4-tetrahydro-pyrimidine-5-carboxylic acid 4-(4-methoxy-benzyloxy)-benzyl ester]
IC50 [1]: < 400 nM
IC50 [2]: < 1000 nM

CC1=C(C(=O)OCCc2cc(C)cc(C)c2)C(CO)NC(=S)N1 (stereo not shown) [37″, 4-hydroxymethyl-6-methyl-2-thioxo-1,2,3,4-tetrahydro-pyrimidine-5-carboxylic acid 2-(3,5-dimethyl-phenyl)-ethyl ester]
IC50 [1]: 800 nM
IC50 [2]: < 1000 nM

CCOc1ccccc1CCOC(=O)C1=C(C)NC(=S)NC1CO (stereo not shown) [11″, 4-hydroxymethyl-6-methyl-2-thioxo-1,2,3,4-tetrahydro-pyrimidine-5-carboxylic acid 2-(2-ethoxy-phenyl)-ethyl ester]
IC50 [1]: 6000 nM
IC50 [2]: 1000 to 10000 nM

CC1=C(C(=O)OCc2ccc(Cl)cc2)C(CF)NC(=S)N1 (stereo not shown) [34′, 4-fluoromethyl-6-methyl-2-thioxo-1,2,3,4-tetrahydro-pyrimidine-5-carboxylic acid 4-chloro-benzyl ester]
IC50 [1]: 700 nM
IC50 [2]: < 1000 nM

CC1=C(C(=O)OCCCc2ccsc2)C(C(C)O)NC(=S)N1 (stereo not shown) [15″, 4-(1-hydroxy-ethyl)-6-methyl-2-thioxo-1,2,3,4-tetrahydro-pyrimidine-5-carboxylic acid 3-thiophen-3-yl-propyl ester]
IC50 [1]: 55000 nM
IC50 [2]: > 20000 nM

CC1=C(C(=O)OCCCCSc2nc3ccccc3s2)C(CO)NC(=S)N1 (stereo not shown) [70″, 4-hydroxymethyl-6-methyl-2-thioxo-1,2,3,4-tetrahydro-pyrimidine-5-carboxylic acid 4-(benzothiazol-2-ylsulfanyl)-butyl ester]
IC50 [1]: 400 nM
IC50 [2]: < 1000 nM

CC1=C(C(=O)OC(C)Cc2ccsc2Br)C(CF)NC(=S)N1 (stereo not shown) [27′, 4-fluoromethyl-6-methyl-2-thioxo-1,2,3,4-tetrahydro-pyrimidine-5-carboxylic acid 2-(2-bromo-thiophen-3-yl)-1-methyl-ethyl ester]
IC50 [1]: < 400 nM
IC50 [2]: < 1000 nM

CC1=C(C(=O)OCc2ccccc2[N+](=O)[O-])CNC(=S)N1 [Compound 183, 6-methyl-2-thioxo-1,2,3,4-tetrahydro-pyrimidine-5-carboxylic acid 2-nitro-benzyl ester]
IC50 [1]: 2500 nM
IC50 [2]: 1000 to 10000 nM

CC1=C(C(=O)OC2CCc3ccccc32)CNC(=S)N1 (stereo not shown) [Compound 123, 6-methyl-2-thioxo-1,2,3,4-tetrahydro-pyrimidine-5-carboxylic acid indan-1-yl ester]
IC50 [1]: 8000 nM
IC50 [2]: 1000 to 10000 nM

CC1=C(C(=O)OCc2cc3ccsc3s2)CNC(=S)N1 [Compound 235, 6-methyl-2-thioxo-1,2,3,4-tetrahydro-pyrimidine-5-carboxylic acid thieno[2,3-b]thiophen-2-ylmethyl ester]
IC50 [1]: 900 nM
IC50 [2]: < 1000 nM

CC1=C(C(=O)OCc2ccc(N(C)C)cc2)CNC(=S)N1 [Compound 79, 6-methyl-2-thioxo-1,2,3,4-tetrahydro-pyrimidine-5-carboxylic acid 4-dimethylamino-benzyl ester]
IC50 [1]: 1300 nM
IC50 [2]: 1000 to 10000 nM

CC1=C(C(=O)OCc2ccccc2SCC(C)C)CNC(=S)N1 [Compound 111, 6-methyl-2-thioxo-1,2,3,4-tetrahydro-pyrimidine-5-carboxylic acid 2-isobutylsulfanyl-benzyl ester]
IC50 [1]: 2000 nM
IC50 [2]: 1000 to 10000 nM

CC1=C(C(=O)OCC=Cc2ccsc2)CNC(=S)N1 [Compound 244, 6-methyl-2-thioxo-1,2,3,4-tetrahydro-pyrimidine-5-carboxylic acid 3-thiophen-3-yl-allyl ester]
IC50 [1]: 500 nM
IC50 [2]: < 1000 nM

CC1=C(C(=O)OCCCc2ccsc2)C(CS(=O)(=O)C(C)(C)C)NC(=S)N1 (stereo not shown) [68′, 6-methyl-4-(2-methyl-propane-2-sulfonylmethyl)-2-thioxo-1,2,3,4-tetrahydro-pyrimidine-5-carboxylic acid 3-thiophen-3-yl-propyl ester]
IC50 [1]: > 100000 nM
IC50 [2]: > 20000 nM

CC1=C(C(=O)OCc2cc(F)cc(F)c2)CNC(=S)N1 [Compound 134, 6-methyl-2-thioxo-1,2,3,4-tetrahydro-pyrimidine-5-carboxylic acid 3,5-difluoro-benzyl ester]
IC50 [1]: 600 nM
IC50 [2]: < 1000 nM
